Data on 4 molecules can be found in ChEMBL document CHEMBL2429779, “Synthesis and anti-inflammatory activity of three nitro chalcones” (Bioorg Med Chem Lett, 2013).

Active and inactive are the calls of the source. The rule behind the calls is not given here.

For series [1], the system named is Rattus norvegicus. The series is described as follows: Antiinflammatory activity in Wistar rat assessed as protection against carrageenan-induced paw edema at 10 mg/kg, po after 3 to 7 hrs by pletismometric analysis relative to vehicle-treated control. The format is functional. Background: In the carrageenan paw model, swelling and tenderness develop within hours.

The test system of series [2] is Rattus norvegicus. As to the kind of experiment: Antiinflammatory activity in Wistar rat assessed as protection against carrageenan-induced paw edema at 10 mg/kg, po after 2 hrs by pletismometric analysis relative to vehicle-treated control. The format is functional.
Series [3] deals with Rattus norvegicus. The series is described as follows: Antiinflammatory activity in Wistar rat assessed as protection against carrageenan-induced paw edema at 200 mg/kg, po after 2 to 7 hrs by pletismometric analysis relative to vehicle-treated control. The format is functional, organism-based. Set-up: dose 200 mg/kg.
A short description of series [4]: Solubility of the compound in water. The format is physicochemical. The note with it: buffer.
Series [5] can be described thus: Solubility of the compound in DMSO. Type of series: physicochemical.
Series [6] has as its system Rattus norvegicus. The series is described as follows: Antiinflammatory activity in Wistar rat assessed as protection against carrageenan-induced paw edema at 200 mg/kg, ip measured after 3 to 7 hrs by pletismometric analysis relative to vehicle-treated control. Type of series: functional, organism-based. The arrangement: dose 200 mg/kg.
For series [7], the system named is Rattus norvegicus. The series is described as follows: Antiinflammatory activity in Wistar rat assessed as protection against carrageenan-induced paw edema at 200 mg/kg, ip measured after 2 hrs by pletismometric analysis relative to vehicle-treated control. Type of series: functional. The following applies: route intraperitoneal.
Series [8] relates to Rattus norvegicus. The series is described as follows: Antiinflammatory activity in Wistar rat assessed as protection against carrageenan-induced paw edema at 200 mg/kg, ip by pletismometric analysis. The format is functional, organism-based. The following applies: TDE = time-dependent effect. The arrangement: dose 200 mg/kg.
Series [9] concerns Rattus norvegicus. As to the kind of experiment: Antiinflammatory activity in Wistar rat assessed as protection against carrageenan-induced paw edema at 200 mg/kg, po after 1 hr by pletismometric analysis relative to vehicle-treated control. The format is functional.
Series [10] has as its system Rattus norvegicus. The series is described as follows: Antiinflammatory activity in Wistar rat assessed as protection against carrageenan-induced paw edema at 200 mg/kg, po after 2 hrs by pletismometric analysis relative to vehicle-treated control. Type of series: functional.
Series [11] relates to Rattus norvegicus. The series is described as follows: Antiinflammatory activity in Wistar rat assessed as protection against carrageenan-induced paw edema at 200 mg/kg, po by pletismometric analysis. The format is functional, organism-based. Set-up: dose 200 mg/kg. The following applies: TDE = time-dependent effect.
The test system of series [12] is Rattus norvegicus. The series is described as follows: Antiinflammatory activity in Wistar rat assessed as protection against carrageenan-induced paw edema at 200 mg/kg, ip measured after 2 to 7 hrs by pletismometric analysis relative to vehicle-treated control. The format is functional. The note with it: route intraperitoneal.
Series [13] concerns Rattus norvegicus. The series is described as follows: Antiinflammatory activity in Wistar rat assessed as protection against carrageenan-induced paw edema at 200 mg/kg, ip measured after 1 hr by pletismometric analysis relative to vehicle-treated control. The format is functional. The following applies: route intraperitoneal.
In series [14] the test system is Rattus norvegicus. As to the kind of experiment: Antiinflammatory activity in Wistar rat assessed as protection against carrageenan-induced paw edema at 200 mg/kg, po after 4 to 7 hrs by pletismometric analysis relative to vehicle-treated control. Type of series: functional.
In series [15] the test system is Rattus norvegicus. The series is described as follows: Antiinflammatory activity in Wistar rat assessed as protection against carrageenan-induced paw edema at 200 mg/kg, po after 3 hrs by pletismometric analysis relative to vehicle-treated control. The format is functional.
Series [16] deals with Rattus norvegicus. The series is described as follows: Antiinflammatory activity in Wistar rat assessed as protection against carrageenan-induced paw edema at 200 mg/kg, po after 7 hrs by pletismometric analysis relative to vehicle-treated control. The format is functional.
The test system of series [17] is Rattus norvegicus. The series is described as follows: Antiinflammatory activity in Wistar rat assessed as protection against carrageenan-induced paw edema at 200 mg/kg, ip measured after 2 to 7 hrs by pletismometric analysis. The format is functional, organism-based. The arrangement: dose 200 mg/kg.
The subject of series [18] is Rattus norvegicus. The series is described as follows: Antiinflammatory activity in Wistar rat assessed as protection against carrageenan-induced paw edema at 200 mg/kg, po after 3 to 7 hrs by pletismometric analysis relative to vehicle-treated control. Type of series: functional, organism-based. The arrangement: dose 200 mg/kg.

As for `Cc1cnc(NC(=O)C2=C(O)c3ccccc3S(=O)(=O)N2C)s1` [MELOXICAM], the Activity in the series with Rattus norvegicus [1] is 50%. Besides, the “%max” value with Rattus norvegicus [2] is on record as 59.3%.
In the case of `O=C(/C=C/c1ccccc1)c1ccc([N+](=O)[O-])cc1`, the outcome in the series on Rattus norvegicus [3] and with Rattus norvegicus [6] was Active. Further, the solubility entry in [4] is given as “Insoluble”; in [5], “soluble”. In addition, the “%max” value in the series with Rattus norvegicus [7] worked out at 43.2%; with Rattus norvegicus [9] it was 38%. The Activity result was “tde” with Rattus norvegicus [8], 20% in the series with Rattus norvegicus [10] and “tde” in the series on Rattus norvegicus [11].
On to `O=C(/C=C/c1ccccc1)c1ccccc1[N+](=O)[O-]`, for which the solubility entry is listed as “Insoluble” in series [4] and “soluble” in series [5]. Further, the Activity with Rattus norvegicus [12] was 50%; with Rattus norvegicus [8], “tde”; with Rattus norvegicus [14] it was 30%; in the series on Rattus norvegicus [11], “tde”. Further, the “%max” value with Rattus norvegicus [13] is 58.2%; with Rattus norvegicus [15], 34.8%.
On to `O=C(/C=C/c1ccccc1)c1cccc([N+](=O)[O-])c1`, for which the Activity in the series with Rattus norvegicus [16] was 0%; with Rattus norvegicus [8], “tde”; in the series on Rattus norvegicus [11] it was “tde”. Further, the solubility entry in series [4] is reported as “Insoluble”; in series [5], “soluble”. Also, the result with Rattus norvegicus [17] was Active. Moreover, the results for the “%max” value in the series with Rattus norvegicus [13] and in the series on Rattus norvegicus [10] were 68% and 31%, respectively. Also, the result with Rattus norvegicus [18] was inactive.
